The text below walks through data of US20240025922A1, “TETRAHYDROPYRIDO[3,4-d]PYRIMIDINES AS HPK1 INHIBITORS” (Merck Patent GmbH, priority 2022, published 2024).

Structures are written as SMILES. Bounds are passed on as bounds.

In experiment [1] the target is full-length human HPK1 (MAP4K1) (Homo sapiens (Human), UniProt Q92918). As to the kind of experiment: HPK1 Kinase Assay (Biochemical Assay), ADP-Glo. Conditions: GST-HPK1 3.2 nM, 10 μM ATP, MBP substrate, read-out: HPK1 enzymatic IC50. Summed up:
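ADP-Glo luminescence after a 120-min kinase reaction gave percent inhibition and IC50. The enzyme was Sf21-expressed N-terminal GST full-length human HPK1 at 3.2 nM in HEPES pH 7.5 buffer with MgCl2, DTT, Brij-35 and BSA.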
A general note: In ADP-Glo the light output rises with the ADP produced.

The target in experiment [2] is HPK1 (SLP76 phosphorylation at Ser376 in Jurkat and EL-4 cells) (Homo sapiens, UniProt Q92918). It is filed as cell-based. The following applies: αCD3/αCD28 Dynabeads stimulated cells, pSLP76 (Ser376) detection; read-out: HPK1 pSLP76 IC50. The gist of the method: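 Phospho-SLP76 (Ser376) in lysates measured by AlphaLISA for human Jurkat and by 19 h HTRF for mouse EL-4, giving % inhibition and IC50. Compounds applied 60 min before αCD3/αCD28 bead stimulation at 37 °C, lasting 15 min (Jurkat) or 30 min (EL-4).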
Sequence of HPK1 (SLP76 phosphorylation at Ser376 in Jurkat and EL-4 cells) (Q92918 whole entry, looked up): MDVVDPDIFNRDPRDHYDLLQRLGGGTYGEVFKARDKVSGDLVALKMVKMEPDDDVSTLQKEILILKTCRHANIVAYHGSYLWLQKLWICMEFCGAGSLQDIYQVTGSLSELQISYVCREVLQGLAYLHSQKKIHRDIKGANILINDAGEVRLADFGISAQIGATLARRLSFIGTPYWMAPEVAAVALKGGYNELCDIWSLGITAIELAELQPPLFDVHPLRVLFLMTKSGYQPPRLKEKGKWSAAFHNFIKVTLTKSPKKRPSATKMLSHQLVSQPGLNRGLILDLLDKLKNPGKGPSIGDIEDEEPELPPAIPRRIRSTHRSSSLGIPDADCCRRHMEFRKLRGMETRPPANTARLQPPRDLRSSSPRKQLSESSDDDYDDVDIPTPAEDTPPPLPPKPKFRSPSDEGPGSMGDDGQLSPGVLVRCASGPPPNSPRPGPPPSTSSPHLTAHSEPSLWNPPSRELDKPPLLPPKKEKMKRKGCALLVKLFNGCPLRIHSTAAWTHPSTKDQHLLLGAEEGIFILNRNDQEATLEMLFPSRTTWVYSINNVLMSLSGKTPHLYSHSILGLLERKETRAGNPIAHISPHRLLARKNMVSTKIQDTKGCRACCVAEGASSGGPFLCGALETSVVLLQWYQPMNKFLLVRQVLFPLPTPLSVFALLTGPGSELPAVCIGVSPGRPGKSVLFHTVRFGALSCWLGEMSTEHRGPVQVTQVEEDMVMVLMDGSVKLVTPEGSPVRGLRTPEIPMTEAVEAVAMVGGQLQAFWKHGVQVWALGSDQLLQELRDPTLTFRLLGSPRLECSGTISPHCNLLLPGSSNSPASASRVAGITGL

Sequence of full-length human HPK1 (MAP4K1) (Q92918 whole entry): as the sequence (Q92918 whole entry, looked up) above

Take `Cc1c(N2CCc3cnc(Nc4ccc(Cn5nccn5)cc4)nc3C2)cnc2c1NCCO2` [Example 185, 7-{8-methyl-1H,2H,3H-pyrido[2,3-b][1,4]oxazin-7-yl}-N-{4-[(2H-1,2,3-triazol-2-yl)methyl]phenyl}-5H,6H,7H,8H-pyrido[3,4-d]pyrimidin-2-amine]: the IC50 – broadly, the concentration needed to halve the response being measured – was less than 100 nM in experiment [1] and less than 500 nM in experiment [2].

Take `Cc1c(N2CCc3cnc(Nc4ccc(C(C)(C)S(C)(=O)=O)cc4)nc3C2)cnc2c1NCCO2` [Example 186, N-[4-(2-methanesulfonylpropan-2-yl)phenyl]-7-{8-methyl-1H,2H,3H-pyrido[2,3-b][1,4]oxazin-7-yl}-5H,6H,7H,8H-pyrido[3,4-d]pyrimidin-2-amine]: the results for the half-maximal inhibitory concentration (IC50) in experiment [1] and in experiment [2] were less than 100 nM and 500 to 1000 nM, respectively.

With `Cc1c(N2CCc3cnc(Nc4ccc(Cn5cccn5)cc4)nc3C2)cnc2c1NCCO2` [Example 187, 7-{8-methyl-1H,2H,3H-pyrido[2,3-b][1,4]oxazin-7-yl}-N-{4-[(1H-pyrazol-1-yl)methyl]phenyl}-5H,6H,7H,8H-pyrido[3,4-d]pyrimidin-2-amine], the IC50 is less than 100 nM in experiment [1] and less than 500 nM in experiment [2].

On to `Cc1c(N2CCc3cnc(Nc4ccc(CN5CCOC5=O)cc4)nc3C2)cnc2c1NCCO2` [Example 188, 3-({4-[(7-{8-methyl-1H,2H,3H-pyrido[2,3-b][1,4]oxazin-7-yl}-5H,6H,7H,8H-pyrido[3,4-d]pyrimidin-2-yl)amino]phenyl}methyl)-1,3-oxazolidin-2-one], for which the IC50 in experiment [1] was less than 100 nM; in experiment [2], less than 500 nM.

Regarding `Cc1c(N2CCc3cnc(Nc4ccc(CC(=O)N(C)C)cc4)nc3C2)cnc2c1NCCO2` [Example 189, N,N-dimethyl-2-{4-[(7-{8-methyl-1H,2H,3H-pyrido[2,3-b][1,4]oxazin-7-yl}-5H,6H,7H,8H-pyrido[3,4-d]pyrimidin-2-yl)amino]phenyl}acetamide], the results for the IC50 in experiment [1] and in experiment [2] were less than 100 nM and less than 500 nM, respectively.

For `Cc1c(N2CCc3cnc(Nc4ccc(CS(C)(=O)=O)c(F)c4)nc3C2)cnc2c1NCCO2` [Example 190, N-[3-fluoro-4-(methanesulfonylmethyl)phenyl]-7-{8-methyl-1H,2H,3H-pyrido[2,3-b][1,4]oxazin-7-yl}-5H,6H,7H,8H-pyrido[3,4-d]pyrimidin-2-amine], the IC50 in experiment [1] was less than 100 nM; in experiment [2], less than 500 nM.

Regarding `Cc1c(N2CCc3cnc(Nc4cccc(Cn5ccnc5)c4)nc3C2)cnc2c1NCCO2` [Example 191, N-{3-[(1H-imidazol-1-yl)methyl]phenyl}-7-{8-methyl-1H,2H,3H-pyrido[2,3-b][1,4]oxazin-7-yl}-5H,6H,7H,8H-pyrido[3,4-d]pyrimidin-2-amine], the IC50 was less than 100 nM in experiment [1] and less than 500 nM in experiment [2].
